The compounds below were run against human CB1 receptor (Homo sapiens, UniProt P21554) (assay: Human CB1 receptor binding, [3H] CP-55,940 displacement on HEK cell membranes). Settings: CB1 Ki.
Chain of human CB1 receptor (P21554 whole entry): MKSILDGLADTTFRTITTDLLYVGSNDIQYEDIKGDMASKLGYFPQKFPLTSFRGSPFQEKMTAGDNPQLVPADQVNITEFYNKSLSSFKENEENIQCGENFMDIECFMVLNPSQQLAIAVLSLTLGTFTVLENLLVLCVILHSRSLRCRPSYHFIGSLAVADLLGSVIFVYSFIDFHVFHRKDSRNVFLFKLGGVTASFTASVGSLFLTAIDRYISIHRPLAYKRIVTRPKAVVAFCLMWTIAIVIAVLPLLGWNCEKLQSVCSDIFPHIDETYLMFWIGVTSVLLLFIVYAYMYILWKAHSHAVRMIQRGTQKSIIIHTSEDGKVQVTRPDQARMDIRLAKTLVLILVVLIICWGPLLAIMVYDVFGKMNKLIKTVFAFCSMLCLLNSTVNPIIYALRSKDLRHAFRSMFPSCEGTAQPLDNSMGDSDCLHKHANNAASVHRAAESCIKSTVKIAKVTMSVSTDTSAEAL
Set-up: expressed in transfected cells; host or cells: HEK cells, doxycycline-induced; membrane preparation
Method: The Human CB1 receptor binding affinity and other biological activities of the compounds of this invention are determined by the following procedures. Membrane preparation: Human Embryonic Kidney (HEK) Cells expressing the human CB1 receptor under transcriptional regulation of a tetracycline inducible promoter were grown in Dulbecco's Modified Essential Medium with sodium pyruvate (Invitrogen, Carlsbad, Calif.) containing 10% tetracycline free fetal bovine serum (Clonetech, Mountain View, Calif.) 100 μg/ml hygromycin (Calbiochem, San Diego, Calif.), 5 μg/ml blasticidin (Invitrogen). CB1 receptor expression was induced by addition of 1 μg/ml doxycycline (Calbiochem) and incubation for an additional 24 hours. Cells were released from flasks using Cell Dissociation Buffer (Invitrogen). Cells were pelleted by centrifugation at 500×G for 5 minutes. Membranes were prepared by resuspending cells in ice cold TEE Buffer (25 mM Tris pH 7.4, 5 mM EDTA, 5 mM EGTA, Complete Protease Inhibitor (Roche, Basel, Switzerland)). Cells were lysed with 12 strokes of a dounce homogenizer. Unlysed cells were pelleted by centrifugation at 500×G for 5 minutes. Membranes were pelleted by centrifugation at 25,000×G for 30 minutes. Membranes were resuspended in TEE, dounced 12 strokes, and pelleted a second time at 25,000×G for 30 minutes. Membrane pellet was resuspended in 50 mM Tris pH 7.4, 100 mM NaCl, 3 mM MgCl2, 0.2 mM EGTA, Complete Protease Inhibitor (Roche). Protein concentration was determined using the Micro-BCA Protein Assay Kit (Pierce, Rockford, Ill.) using BSA as a standard. Membranes were quick frozen and stored at −80 degrees Celsius until use.
Binding experiments: 50 μl of test compound was incubated with 50 μl of [^3H] CP-55,940 (Perkin Elmer, Boston, Mass.) (final concentration=[…]) and 150 μl of membrane homogenate (1 μg/well) in polypropylene 96-well plates (Corning, Acton, Mass.). Final reaction conditions were 50 mM Tris pH 7.4, 100 mM NaCl, 3 mM MgCl2, 0.2 mM EGTA, 0.04% BSA. Nonspecific binding was determined by incubation with 50 μM WIN-55, 212-2 (Tocris, Ellisville, Mo.). After incubation at room temperature for 60 minutes reactions were harvested by vacuum filtration through Unifilter GF/B-96 filters (Perkin Elmer) that had been presoaked in assay buffer containing 0.5% BSA (Sigma, St. Louis, Mo.) using a FilterMate Plate Harvester (Perkin Elmer). Filters were rinsed 4 times with 50 mM Tris pH 7.4, 0.025% Tween-20 and dried at 50 degrees Celsius for at least 30 minutes. 40 μl of Microscint-20 (Perkin Elmer) was added per well, and plates were counted using a Top-Count Microplate Scintillation Counter (Perkin Elmer). Binding data were analyzed and EC50 and K, values calculated using Graph Pad Prism 4.0 Software.
With CC(C)(C)[C@H](NC(=O)c1nn(Cc2ccc(C#N)cc2)c2ccc(Cl)cc12)C(=O)NCCO [Example 447] the Ki was 170 nM.
Compound CC(C)(C)[C@H](NC(=O)c1nn(Cc2ccc(C#N)cc2)c2c(F)cccc12)C(=O)N[C@H]1C[C@H](O)C1 [Example 355] has a Ki of 52.9 nM.
Work on CC(C)(C)[C@H](NC(=O)c1nn(Cc2ccc(C#N)cc2F)c2c(F)c(F)ccc12)C(=O)NC[C@H](O)CO [Example 361] yielded a Ki of 41.6 nM.
Compound CC(C)(C)[C@H](NC(=O)c1nn(Cc2ccc(C#N)cc2)c2cc(F)ccc12)C(=O)NC[C@H](O)CO [Example 298] has a Ki of 182 nM.
For CC(C)(C)[C@H](NC(=O)c1nn(Cc2ccc(C#N)cc2)c2ccccc12)C(=O)NC1CCC1 [Example 406], the Ki was 89.7 nM.
CC(C)(C)[C@H](NC(=O)c1nn(Cc2ccc(C#N)cc2)c2ccc(Cl)cc12)C(=O)NCC(N)=O [Example 443] showed a Ki greater than 400 nM.
Compound CC(C)(C)[C@H](NC(=O)c1nn(Cc2ccc(C#N)cc2)c2ccc(Cl)cc12)C(=O)NCCS(N)(=O)=O [Example 444] has a Ki greater than 400 nM.
CC(C)(C)[C@H](NC(=O)c1nn(Cc2ccc(C#N)cc2)c2ccccc12)C(=O)NC[C@H](O)CO [Example 384] gave a Ki of 286 nM.
Work on CC(C)(C)[C@H](NC(=O)c1nn(Cc2ccc(C#N)cc2F)c2c(F)cccc12)C(=O)NCCS(C)(=O)=O [Example 370] yielded a Ki of 132 nM.
With CC(C)(C)[C@H](NC(=O)c1nn(Cc2ccc(C#N)cc2F)c2c(F)c(F)ccc12)C(=O)NCCS(C)(=O)=O [Example 362] the Ki was 125 nM.
For Cc1nnc(CNC(=O)[C@@H](NC(=O)c2nn(Cc3ccc(C#N)cc3F)c3c(F)cccc23)C(C)(C)C)o1 [Example 372], the Ki was 22.6 nM.
With CC(C)(C)[C@H](NC(=O)c1nn(Cc2ccc(C#N)cc2F)c2ccccc12)C(=O)N[C@H]1C[C@@H](C(N)=O)C1 [Example 397] the Ki was 243 nM.
With CC(C)(C)[C@H](NC(=O)c1nn(Cc2ccc(F)cc2)c2ccccc12)C(=O)NC[C@@H](O)C(N)=O [Example 314] the Ki was 130 nM.
CC(C)NC(=O)[C@@H](NC(=O)c1nn(Cc2ccc(C#N)cc2)c2ccc(Cl)cc12)C(C)(C)C [Example 450] gave a Ki of 241 nM.
In the case of CC(C)(C)[C@H](NC(=O)c1nn(Cc2cccc3ccccc23)c2ccccc12)C(N)=O [Example 272], the Ki is reported as greater than 400 nM.
In the case of COc1cc(C#N)ccc1Cn1nc(C(=O)N[C@H](C(=O)NC(CO)CO)C(C)(C)C)c2ccccc21 [Example 391], the Ki is reported as greater than 400 nM.
With CC(C)(C)[C@H](NC(=O)c1nn(Cc2ccc(C#N)cc2)c2ccc(Cl)cc12)C(=O)NCC1CC1 [Example 451] the Ki was greater than 400 nM.
For COc1cc(C#N)ccc1Cn1nc(C(=O)N[C@H](C(=O)NCCO)C(C)(C)C)c2ccccc21 [Example 386], the Ki was 209 nM.
For CC(C)(C)[C@H](NC(=O)c1nn(Cc2ccc(F)cc2)c2ccccc12)C(=O)N[C@H](CO)C(=O)O [Example 235], the Ki was 222 nM.
CC(C)(C)[C@H](NC(=O)c1nn(Cc2ccc(F)cc2)c2ccccc12)C(=O)N[C@@H]1CCCC[C@H]1O [Example 248] was tested, and the Ki was 108 nM.

Same assay, conditions: read-out: CB1 Ki
In the case of CC(C)(C)[C@H](NC(=O)c1nn(Cc2ccc(C#N)cc2F)c2ccccc12)C(=O)NCCN1CCNC(=O)C1 [Example 466], the Ki is reported as greater than 400 nM.
With Cc1cc(O)nc(CNC(=O)[C@@H](NC(=O)c2nn(Cc3ccc(C#N)cc3)c3ccccc23)C(C)(C)C)n1 [Example 350] the Ki was 229 nM.
In the case of Cc1cc(O)nc(CCNC(=O)[C@@H](NC(=O)c2nn(Cc3ccc(F)cc3)c3ccccc23)C(C)(C)C)n1 [Example 483], the Ki is reported as 84 nM.
Compound CC(C)(C)[C@H](NC(=O)c1nn(Cc2ccc(F)c(F)c2)c2ccccc12)C(=O)NCCN1CCNC(=O)C1 [Example 469] has a Ki of 80.7 nM.
COc1cc(CNC(=O)[C@@H](NC(=O)c2nn(Cc3ccc(C#N)cc3)c3c(F)cccc23)C(C)(C)C)on1 [Example 312] was tested, and the Ki was 178 nM.
For CC(C)(C)[C@H](NC(=O)c1nn(Cc2ccc(C#N)cc2)c2c(F)cccc12)C(=O)N[C@H](CO)c1ccccc1 [Example 216], the Ki was 225 nM.
In the case of COc1cccc(C2(NC(=O)[C@@H](NC(=O)c3nn(Cc4ccc(C#N)cc4)c4c(F)cccc34)C(C)(C)C)CC2)c1 [Example 212], the Ki is reported as 52.1 nM.

— patent publication US20110028447A1, “INDAZOLE DERIVATIVES” (Pfizer Inc., priority 2008, published 2011)
